Here are results for eight molecules from paper PMC2922380, “Binding of Protein Kinase Inhibitors to Synapsin I Inferred from Pair-Wise Binding Site Similarity Measurements” (PLoS ONE, 2010).

In one assay the target is bovine synapsin I (Bos taurus, UniProt P17599). The assay can be described thus: ATP-γ35S binding competition assay on purified synapsin I. To be noted: for binding to synapsin I (result in words): ATP-γ35S competition, inhibitor 0.1–30 µM; for maximal inhibition of ATP-γ35S binding to synapsin I: from curve fitting (lower plateau). Here is the method: Synapsin I was purified from bovine brain [71] and stored in liquid nitrogen in 200 mM NaCl, 25 mM TrisCl, pH 7.4. […] ATP-γ^35S binding was quantified as previously described. Briefly, aliquots of the samples were spotted onto squares of phosphocellulose paper (Upstate/Millipore, Billerica, MA). The paper squares were extensively washed with deionized water for 30 min, air-dried and analyzed for radioactivity by using the Perkin Elmer Cyclone Plus Phosphor Imager. After subtraction of the background values (samples with no synapsin I), data from individual competition curves were fitted with a sigmoidal dose-response function (f = min +(max–min)/(1+10∧((logEC50-x)*Hillslope)) using the Sigmaplot 8.0 software (SPSS Inc., Chicago, IL) to yield IC50 and maximal inhibition values. Data in the plots are the means ± sem of at least 5 independent experiments.

For a further assay, the system named is synapsin I / F-actin. As to the kind of experiment: F-actin bundling activity of synapsin I, low speed sedimentation assay. Format: biochemical, bovine. The following applies: staurosporine 5 µM; synapsin I 0.5 µM, F-actin 5 µM; vs samples with F-actin and synapsin I only. Here is the method:
Actin was purified from acetone powder of rabbit skeletal muscles, [96] and stored in liquid nitrogen in 2 mM Tris pH 8, 0.2 mM ATP, 0,2 mM CaCl2, 0.125 mM β-mercaptoethanol and 0.005% NaN3 (G-buffer). Before the experiments, both G-actin and synapsin I were prespun for 1 h at 4°C at 300,000× g to remove large aggregates. G-actin was polymerized at room temperature for 1 h in the presence of 100 mM KCl, 1.2 mM MgCl2. […] Pellets were solubilized in sample buffer and analyzed by sodium dodecylsulfate polyacrylamide gel electrophoresis (SDS-PAGE) using 10% acrylamide in the resolving gel. Gels were fixed, stained with Coomassie Blue and destained. Densitometric analysis of the actin bands was carried out by using the ImageQuant system (GE Healthcare) followed by densitometric analysis of the fluorograms and by data interpolation into a standard curve of purified G-actin run in parallel with the unknown samples.

Where [1] appears, read: ATP-γ35S 0.2 µM, purified bovine synapsin I 0.5 µM, means ± sem from 5 independent experiments, read-out: IC50, inhibition of ATP-γ35S binding to synapsin I.
[2] abbreviates: ATP-γ35S 0.2 µM, purified bovine synapsin I 0.5 µM.

Like-named read-outs stand apart in the source and are kept apart here.

Consider `O=S(=O)(NCCNC/C=C/c1ccc(Br)cc1)c1cccc2cnccc12` [H-89], for which the IC50 at bovine synapsin I (setting [1]) was greater than 30000 nM.
For the molecule novobiocin, the “binding to synapsin I (result in words)” value at bovine synapsin I was “inactive”.
Consider `CN[C@@H]1C[C@H]2O[C@@](C)([C@@H]1OC)n1c3ccccc3c3c4c(c5c6ccccc6n2c5c31)C(=O)NC4` [staurosporine], for which the “maximal inhibition of ATP-γ35S binding to synapsin I” value (from here on “maximal inhibition”) at bovine synapsin I (setting [2]) amounted to 84.3±1.2%. In addition, the “affinity to bovine synapsin I” value at bovine synapsin I (in vitro competition assay, as restated in Discussion) is reported as “about 0.3 µM”. In addition, the “increase in F-actin/synapsin I bundles recovered by low speed sedimentation” value in the assay with synapsin I / F-actin is “approximately 30%”.
`O=c1c(O)c(-c2ccc(O)c(O)c2)oc2cc(O)c(O)c(O)c12` [quercetagetin] gave an IC50 on bovine synapsin I of 150 nM. Also, the “maximal inhibition” value on bovine synapsin I (setting [2]) turned out to be 88.3±4.9%.
Regarding `O=C(O)CN1C(=O)c2c(I)c(I)c(I)c(I)c2C1=O` [compound 70159800251], the “maximal inhibition” value on bovine synapsin I (setting [2]) was “ca. 70%”. Further, at bovine synapsin I (setting [1]), the IC50 came to 500 nM.
For `CCc1cc(-c2n[nH]c(C)c2-c2ccc3c(c2)OCCO3)c(O)cc1O` [CCT018159], the “binding to synapsin I (result in words)” value at bovine synapsin I is “inactive”.
With `Cc1nc2sccn2c(=O)c1CCN1CCC(=C(c2ccccc2)c2ccc(F)cc2)CC1` [R59022], the “binding to synapsin I (result in words)” value on bovine synapsin I was “inactive”.
Consider `Nc1ncnc2c1ncn2[C@@H]1O[C@H](COP(=O)(O)OP(=O)(O)OP(=O)(O)O)[C@@H](O)[C@H]1O` [ATP], for which the “maximal inhibition” value at bovine synapsin I (setting [2]) came to 95.8±2.2%. The IC50 at bovine synapsin I (setting [1]) came out at 70 ± 10 nM.

By IC50 is commonly meant the point on the concentration scale where inhibition reaches its midpoint.
